Experimental data taken from patent US12187728B2 (Raze Therapeutics, Inc., priority 2015, dated 2025).

Molecular target: T1, Human MTHFD2 (Homo sapiens, UniProt P13995)
T1 construct: residues 36-350 in Uniport ID P13995; His6 (N); made in house; host or cells: E. coli
T1 sequence (P13995 36-350): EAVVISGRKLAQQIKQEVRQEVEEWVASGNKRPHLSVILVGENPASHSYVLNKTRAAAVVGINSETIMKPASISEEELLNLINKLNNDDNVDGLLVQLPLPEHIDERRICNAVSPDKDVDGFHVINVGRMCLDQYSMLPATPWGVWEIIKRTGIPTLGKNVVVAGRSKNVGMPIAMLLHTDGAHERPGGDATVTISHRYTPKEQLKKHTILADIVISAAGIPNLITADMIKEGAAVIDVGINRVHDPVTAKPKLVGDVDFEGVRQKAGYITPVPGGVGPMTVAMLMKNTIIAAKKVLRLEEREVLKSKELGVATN
Assay: MTHFD2 Activity Assay (dehydrogenase activity, diaphorase/resazurin coupled fluorescence)
Type: biochemical
Settings: inhibitory activity (IC50 and/or binding constant); 0.2 nM MTHFD2, 11 concentrations
In short: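 His6-tagged MTHFD2 (res. 36-350), E. coli-expressed, at 0.2 nM preincubated with compound 15 min in Hepes pH 8.0/MgCl2/KH2PO4 buffer; 70 μM CH2-THF, 1 mM NAD+ added with resazurin/diaphorase, 30 min, EDTA stop. Resorufin fluorescence (ex 525/em 598); IC50 from 11-point 4-parameter fit.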

Cn1c(NC(C(=O)O)C2CCCCC2)nc2c1c(=O)n(Cc1ccc(C(F)(F)F)cc1)c(=O)n2C (stereo not drawn) [Example 151, 2-cyclohexyl-2-((3,7-dimethyl-2,6-dioxo-1-(4-(trifluoromethyl)benzyl)-2,3,6,7-tetrahydro-1H-purin-8-yl)amino)acetic acid]
IC50: > 10000 nM

Cn1c(-n2nccc2N)nc2c1c(=O)n(Cc1cc3cc(Cl)ccc3[nH]1)c(=O)n2C [Example 219, 8-(5-amino-1H-pyrazol-1-yl)-1-((5-chloro-1H-indol-2-yl)methyl)-3,7-dimethyl-1H-purine-2,6(3H,7H)-dione]
IC50: 10 to 1000 nM

Cn1c(NCCS(N)(=O)=O)nc2c1c(=O)n(Cc1ccc(Cl)c(Cl)c1)c(=O)n2C [Example 102, 2-(1-(3,4-dichlorobenzyl)-3,7-dimethyl-2,6-dioxo-2,3,6,7-tetrahydro-1H-purin-8-ylamino)ethanesulfonamide]
IC50: 5000 to 10000 nM

Cn1c(Nc2cnccn2)nc2c1c(=O)n(Cc1cc3c(Cl)cccc3[nH]1)c(=O)n2C [Example 354, 1-((4-chloro-1H-indol-2-yl)methyl)-3,7-dimethyl-8-(pyrazin-2-ylamino)-1H-purine-2,6(3H,7H)-dione]
IC50: 10 to 1000 nM

Cn1c(=O)c2c(nc(CCN)n2C)n(C)c1=O [Example 394, 8-(2-aminoethyl)-1,3,7-trimethyl-1H-purine-2,6(3H,7H)-dione]
IC50: 5000 to 10000 nM

Cn1c(CCO)nc2c1c(=O)n(Cc1cc3cc(Cl)ccc3[nH]1)c(=O)n2C [Example 223, 1-((5-chloro-1H-indol-2-yl)methyl)-8-(2-hydroxyethyl)-3,7-dimethyl-1H-purine-2,6(3H,7H)-dione]
IC50: 1000 to 5000 nM

Cn1c(Nc2cc(CCC(=O)O)ccn2)nc2c1c(=O)n(Cc1ccc(Cl)c(Cl)c1)c(=O)n2C [Example 281, 3-(2-(1-(3,4-dichlorobenzyl)-3,7-dimethyl-2,6-dioxo-2,3,6,7-tetrahydro-1H-purin-8-ylamino)pyridin-4-yl)propanoic acid]
IC50: 1000 to 5000 nM

COCc1cc(Cn2c(=O)c3c(ncn3C)n(C)c2=O)ccc1Cl [Example 252, 1-(4-chloro-3-(methoxymethyl)benzyl)-3,7-dimethyl-1H-purine-2,6(3H,7H)-dione]
IC50: > 10000 nM

Cn1cnc2c1c(=O)n(Cc1ccc(Cl)c(C#N)c1)c(=O)n2C [Example 256, 2-chloro-5-((3,7-dimethyl-2,6-dioxo-2,3,6,7-tetrahydro-1H-purin-1-yl)methyl)benzonitrile]
IC50: 1000 to 5000 nM

Cn1c(NCCCO)nc2c1c(=O)n(Cc1ccc(C(F)(F)F)c(Cl)c1)c(=O)n2C [Example 73, 1-{[3-chloro-4-(trifluoromethyl)phenyl]methyl}-8-[(3-hydroxypropyl)amino]-3,7-dimethyl-2,3,6,7-tetrahydro-1H-purine-2,6-dione]
IC50: 1000 to 5000 nM

Cn1c(N[C@@H]2CCC[C@@H]2C(=O)O)nc2c1c(=O)n(Cc1ccc(C(F)(F)F)cc1)c(=O)n2C [Example 110, (1S,2R)-2-(3,7-dimethyl-2,6-dioxo-1-(4-(trifluoromethyl)benzyl)-2,3,6,7-tetrahydro-1H-purin-8-ylamino)cyclopentanecarboxylic acid]
IC50: 1000 to 5000 nM

Cn1c(=O)n(Cc2ccc(Cl)c(Cl)c2)c(=O)c2c1nc(NC1CCCC(C(=O)O)C1)n2CCC(=O)O (stereo not drawn) [Example 341, 3-(7-(2-carboxyethyl)-1-(3,4-dichlorobenzyl)-3-methyl-2,6-dioxo-2,3,6,7-tetrahydro-1H-purin-8-ylamino)cyclohexanecarboxylic acid]
IC50: 5000 to 10000 nM

Cn1c(NC2CCC(CO)C2)nc2c1c(=O)n(Cc1ccc(Cl)c(Cl)c1)c(=O)n2C (stereo not drawn) [Example 255, 1-(3,4-dichlorobenzyl)-8-(3-(hydroxymethyl)cyclopentylamino)-3,7-dimethyl-1H-purine-2,6(3H,7H)-dione]
IC50: 10 to 1000 nM

COC(=O)c1cc(Cn2c(=O)c3c(nc(NCCCO)n3C)n(C)c2=O)ccc1Cl [Example 165, Methyl 2-chloro-5-({8-[(3-hydroxypropyl)amino]-3,7-dimethyl-2,6-dioxo-2,3,6,7-tetrahydro-1H-purin-1-yl}methyl)benzoate]
IC50: 1000 to 5000 nM

Cn1c(N[C@H]2CCCNC2)nc2c1c(=O)n(Cc1ccc(Cl)c(Cl)c1)c(=O)n2C [Example 68, 1-[(3,4-dichlorophenyl)methyl]-3,7-dimethyl-8-{[(3S)-piperidin-3-yl]amino}-2,3,6,7-tetrahydro-1H-purine-2,6-dione]
IC50: 1000 to 5000 nM

Cn1c(Nc2ccnc([C@@H]3C[C@H]3CO)c2)nc2c1c(=O)n(Cc1ccc(Cl)c(Cl)c1)c(=O)n2C (single isomer, unassigned) [Example 338, 1-(3,4-dichlorobenzyl)-8-((2((1R,2R)-2-(hydroxymethyl)cyclopropyl)pyridin-4-yl)amino)-3,7-dimethyl-1H-purine-2,6(3H,7H)-dione or 1-(3,4-dichlorobenzyl)-8-((2-((1S,2S)-2-(hydroxymethyl)cyclopropyl)pyridin-4-yl)amino)-3,7-dimethyl-1H-purine-2,6(3H,7H)-dione]
IC50: 5000 to 10000 nM

Cn1c(N[C@H]2CCC[C@@H](O)C2)nc2c1c(=O)n(Cc1ccc(Cl)c(Cl)c1)c(=O)n2C (single isomer, unassigned) [Example 78, 1-(3,4-dichlorobenzyl)-8-((1S,3R)-3-hydroxycyclohexylamino)-3,7-dimethyl-1H-purine-2,6(3H,7H)-dione or 1-(3,4-dichlorobenzyl)-8-((1R,3S)-3-hydroxycyclohexylamino)-3,7-dimethyl-1H-purine-2,6(3H,7H)-dione]
IC50: 10 to 1000 nM

Cn1c(N[C@H]2CCOC2)nc2c1c(=O)n(Cc1ccc(Cl)c(Cl)c1)c(=O)n2C [Example 49, 1-[(3,4-dichlorophenyl)methyl]-3,7-dimethyl-8-{[(3S)-oxolan-3-yl]amino}-2,3,6,7-tetrahydro-1H-purine-2,6-dione]
IC50: 10 to 1000 nM

Cn1c(=O)n(Cc2cc3c(Cl)cccc3[nH]2)c(=O)c2c1nc1n2CCNC1 [Example 476, 3-((4-chloro-1H-indol-2-yl)methyl)-1-methyl-6,7,8,9-tetrahydropyrazino[1,2-f]purine-2,4(1H,3H)-dione]
IC50: 10 to 1000 nM

Cn1c(NC2CCCCC2)nc2c1c(=O)n(Cc1ccc(Cl)c(Cl)c1)c(=O)n2C [Example 59, 8-(cyclohexylamino)-1-[(3,4-dichlorophenyl)methyl]-3,7-dimethyl-2,3,6,7-tetrahydro-1H-purine-2,6-dione]
IC50: 1000 to 5000 nM

Cn1c(N[C@@H]2CC[C@H](CO)C2)nc2c1c(=O)n(Cc1ccc(Cl)c(Cl)c1)c(=O)n2C [Example 276, 1-(3,4-dichlorobenzyl)-8-((1R,3S)-3-(hydroxymethyl)cyclopentylamino)-3,7-dimethyl-1H-purine-2,6(3H,7H)-dione]
IC50: 10 to 1000 nM

Cn1c(NCCC#N)nc2c1c(=O)n(Cc1ccc(Cl)c(Cl)c1)c(=O)n2C [Example 131, 3-(1-(3,4-dichlorobenzyl)-3,7-dimethyl-2,6-dioxo-2,3,6,7-tetrahydro-1H-purin-8-ylamino)propanenitrile]
IC50: 1000 to 5000 nM

Cn1c(Nc2ccncc2)nc2c1c(=O)n(Cc1cc3cccc(Cl)c3[nH]1)c(=O)n2C [Example 373, 1-[(7-chloro-1H-indol-2-yl)methyl]-3,7-dimethyl-8-(4-pyridylamino)purine-2,6-dione]
IC50: 10 to 1000 nM

Cn1c(N2CC(O)C2)nc2c1c(=O)n(Cc1cc3cc(Cl)ccc3[nH]1)c(=O)n2C [Example 199, 1-((5-chloro-1H-indol-2-yl)methyl)-8-(3-hydroxyazetidin-1-yl)-3,7-dimethyl-1H-purine-2,6(3H,7H)-dione]
IC50: 1000 to 5000 nM
